Assay results from ChEMBL document CHEMBL1157217, “Terpenoid indole alkaloids from Winchia calophylla” (J Nat Prod, 2006).

Test system: A549
Assay: Cytotoxicity against human A549 cells by SRB assay
Format: functional, cell-based

SMILES: C/C=C1/CN2CC[C@]34C(=C(C(=O)OC)[C@H]1C[C@H]23)Nc1ccccc14 [AKUAMMICINE]
- IC50: 15 µM

SMILES: COC(=O)C1=C2Nc3c(OC)cccc3[C@@]23CCN2C[C@@H]([C@H](C)O)[C@@H]1C[C@H]23
- IC50: 11.5 µM
